The values that follow come from EP0028063A1, “Phenol derivatives, processes for their preparation and pharmaceutical compositions containing them” (GLAXO GROUP LIMITED, priority 1979, dated 1981).

One data set relates to SRS-A. Description: Antagonism of the action of SRS-A on guinea-pig isolated ileum (method of Coleman et al.; pA2 by Arunlakshana and Schild). In kind it is cell-based. The settings on record: Cavia porcellus, SRS-A induced contraction, compounds tested at concentrations of 10^-6 M. The text has this: The compounds according to the invention are potent antagonists of the action of slow reacting substance of anaphylaxis (SRS-A) as shown by their ability to inhibit the SRS-A induced contraction of guinea pig ileum (Coleman et al, Br. J. Pharmacol., 1979, 66, 83P). SRS-A is a naturally occurring substance which causes contraction of smooth muscle, especially bronchial muscle, and increases vascular permeability. The substance is not normally present in human tissue but is synthesised and released from certain cells during an allergic reaction. The compounds according to the invention are thus indicated for use in the treatment of disorders in which SRS-A may be a factor, for example, in obstructive airways diseases such as asthma, in hay fever and in skin afflictions.
The ability of the compounds to act as antagonists of the action of SRS-A was shown using guinea-pig isolated ileum according to the methods of Coleman et al, Br. J. Pharmacol., (1979), 66, 83P. Compounds were tested at concentrations of 10^-6 M and pA2 values were determined using the standard procedures of Arunlalkshana and Schild, Br. J. Pharmac.

For another data set, the system named is dogs. Description: Oral tolerability in dogs. In kind it is in vivo. The following applies: given orally to dogs at doses of up to 10 mg/kg. The text has this: The compounds are in general non-toxic at therapeutically useful doses.

Regarding `CCCc1c(OCCCOc2ccc(OCC(=O)O)cc2)ccc(C(C)=O)c1O` [Example 1g], the Kb in the data set with SRS-A was 100 nM.

As for `CCCc1c(OCCCOc2cccc(C=CC(=O)O)c2)ccc(C(C)=O)c1O` [Example 2a, 3-[3-[3-(4-Acetyl-3-hydroxy-2-propylphenoxy)propoxy]-phenyl]-2-propenoic acid], the antagonist dissociation constant (Kb) in the data set with SRS-A was 39.8 nM. For the same molecule, the adverse effects result with dogs is on record as “no adverse effects”.

In the case of `CCCc1c(OCCCOc2ccc(C(=O)O)c(O)c2CCC)ccc(C(C)=O)c1O` [Example 2c, 4-(3-(4-Aceltyl-3-hydroxy-2-propylphenoxy)propoxy] -2-hydroxy-3-propylbenzoic acid], the antagonist equilibrium constant (Kb) in the data set with SRS-A is 39.8 nM.

In the data set with SRS-A, `CCCc1c(OCCCCCOc2cccc(C=CC(=O)O)c2)ccc(C(C)=O)c1O` [Example 4b, 3-[3-[5-(4-Acetyl-3-hydroxy-2-propylphenoxy)pentyloxy]phenyl]-2-propenoic acid] had an antagonist equilibrium constant (Kb) of 50.1 nM.

In the data set on SRS-A, `CCCc1c(OCCCOc2cccc(CCC(=O)O)c2)ccc(C(C)=O)c1O` [Example 5, 3-[3-(4-Acetyl-3-hydroxy-2-propylphenoxy)propoxy]bepzene propanoic acid] gave an antagonist equilibrium constant (Kb) of 50.1 nM. Also, the adverse effects result with dogs is given as “no adverse effects”.

The molecule `CCCc1c(OCCCOc2ccc(C(=O)O)c(O)c2)ccc(C(C)=O)c1O` [Example 8, 4-[3-(4-Acetyl-3-hydroxy-2-propylphcnoxy)propoxy]-2-hydroxybenzoic acid] showed a Kb with SRS-A of 15.8 nM. The adverse effects result in the data set on dogs was “no adverse effects”.

In the data set on SRS-A, `CCCc1c(OCCCOc2cc(C=CC(=O)O)ccc2[N+](=O)[O-])ccc(C(C)=O)c1O` [Example 9b, 3-[3-[3-[4-Acetyl-3-hydroxy-2-propylphenoxy]propoxy]-4-nitrophenyl]-2-propenoic acid] had a Kb of 31.6 nM.

For `CCCc1c(OCCCOc2cccc(-c3nn[nH]n3)c2)ccc(C(C)=O)c1O` [Example 10b, 5-[3-[3-[4-Acetyl-3-hydroxy-2-propylphenoxy]propoxy]-phenyl]-lH-tetrazole], the antagonist equilibrium constant (Kb) in the data set on SRS-A was 79.4 nM.
